Laboratory results taken from patent publication US6737383B1, “Herbicidal oxadiazolidines” (priority 1999, dated 2004).

Tests used:
wheat = assay: Test B pre/postemergence wheat; assay type: in vivo, Triticum aestivum; details: for Plant response rating, Wheat: Postemergence; for Wheat plant response rating: scale of 0 to 10 where 0 is no effect and 10 is complete control
Summary of the method: (§1)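 Herbicidal effect was estimated by eye on a ten-point control scale after plants spent twelve to sixteen days in a greenhouse following soil or foliar treatment. Foliar sprays targeted plants at one to four leaves; all doses were formulated in a non-phytotoxic solvent with surfactant.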

morningglory = assay: Test B pre/postemergence morningglory; assay type: in vivo, Ipomoea hederacea; details: for Plant response rating, Morningglory: Postemergence; for Morningglory plant response rating: scale of 0 to 10 where 0 is no effect and 10 is complete control
Summary of the method: as §1

rape = assay: Test B pre/postemergence rape; assay type: in vivo, Brassica napus; details: for Plant response rating, Rape: Postemergence; for Rape plant response rating: scale of 0 to 10 where 0 is no effect and 10 is complete control
Summary of the method: as §1

rice = assay: Test B flood test rice; assay type: in vivo, Oryza sativa; details: Pre-emergence
Summary of the method: (§2)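 Flood test on plants grown to the 2-leaf stage; treated plants kept in greenhouse twelve to sixteen days, then visually rated against controls on a 0 (no effect) to 10 (complete control) scale.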

pigweed = assay: Test B pre/postemergence pigweed; assay type: in vivo, Amaranthus retroflexus; details: for Plant response rating, Redroot pigweed: Postemergence; for Redroot pigweed plant response rating: scale of 0 to 10 where 0 is no effect and 10 is complete control
Summary of the method: as §1

crabgrass = assay: Test B pre/postemergence crabgrass; assay type: in vivo, Digitaria sanguinalis; details: for Plant response rating, Crabgrass: Postemergence; for Crabgrass plant response rating: scale of 0 to 10 where 0 is no effect and 10 is complete control
Summary of the method: as §1

wild oat = assay: Test B pre/postemergence wild oat; assay type: in vivo, Avena fatua; details: for Plant response rating, Wild oats: Postemergence; for Wild oats plant response rating: scale of 0 to 10 where 0 is no effect and 10 is complete control
Summary of the method: as §1

bamyardgrass = assay: Test B flood test barnyardgrass; assay type: in vivo, Echinochloa crus-galli; details: Pre-emergence
Summary of the method: as §2

bedstraw = assay: Test B pre/postemergence bedstraw; assay type: in vivo, Galium aparine; details: for Plant response rating, Bedstraw: Postemergence
Summary of the method: as §1

duck salad = assay: Test B flood test duck salad; assay type: in vivo, Heteranthera limosa; details: Pre-emergence
Summary of the method: as §2

giant foxtail = assay: Test B pre/postemergence giant foxtail; assay type: in vivo, Setaria faberii; details: for Plant response rating, Giant foxtail: Postemergence; for Giant foxtail plant response rating: Preemergence, scale of 0 to 10 where 0 is no effect and 10 is complete control
Summary of the method: as §1

blackgrass = assay: Test B pre/postemergence blackgrass; assay type: in vivo, Alopecurus myosuroides; details: for Plant response rating, Blackgrass: Postemergence
Summary of the method: as §1

purple nutsedge = assay: Test B pre/postemergence purple nutsedge; assay type: in vivo, Cyperus rotundus; details: for Plant response rating, Nutsedge: Postemergence; for Nutsedge plant response rating: scale of 0 to 10 where 0 is no effect and 10 is complete control
Summary of the method: as §1

velvetleaf = assay: Test B pre/postemergence velvetleaf; assay type: in vivo, Abutilon theophrasti; details: for Plant response rating, Velvetleaf: Postemergence; for Velvetleaf plant response rating: scale of 0 to 10 where 0 is no effect and 10 is complete control
Summary of the method: as §1

smallflower flatsedge = assay: Test B flood test smallflower flatsedge; assay type: in vivo, Cyperus difformis; details: Pre-emergence
Summary of the method: as §2

cocklebur = assay: Test B pre/postemergence cocklebur; assay type: in vivo, Xanthium strumarium; details: for Plant response rating, Cocklebur: Postemergence; for Cocklebur plant response rating: scale of 0 to 10 where 0 is no effect and 10 is complete control
Summary of the method: as §1

surinam grass = assay: Test B pre/postemergence surinam grass; assay type: in vivo, Brachiaria decumbens; details: for Plant response rating, B. signalgrass: Postemergence
Summary of the method: as §1

sugar beet = assay: Test B pre/postemergence sugar beet; assay type: in vivo, Beta vulgaris; details: for Plant response rating, Sugarbeets: Postemergence; for Sugarbeets plant response rating: scale of 0 to 10 where 0 is no effect and 10 is complete control
Summary of the method: as §1

soybean = assay: Test B pre/postemergence soybean; assay type: in vivo, Glycine max; details: for Plant response rating, Soybean: Postemergence; for Soybean plant response rating: scale of 0 to 10 where 0 is no effect and 10 is complete control
Summary of the method: as §1

corn = assay: Test B pre/postemergence corn; assay type: in vivo, Zea mays; details: for Plant response rating, Corn: Postemergence; for Corn plant response rating: scale of 0 to 10 where 0 is no effect and 10 is complete control
Summary of the method: as §1

[1] = Rate 125 g/ha, scale 0 to 10, 0 is no effect, 10 is complete control
[2] = Rate 500 g/ha, scale 0 to 10, 0 no effect, 10 complete control
[3] = Rate 1000 g/ha, scale 0 to 10 (0 no effect, 10 complete control)
[4] = Rate 125 g/ha, flood test species, scale 0 to 10 where 0 is no effect and 10 is complete control
[5] = Rate 250 g/ha, flood-test species, scale 0 to 10, 0 is no effect, 10 is complete control
[6] = Rate 500 g/ha, flood test species, scale 0 to 10 (0 no effect, 10 complete control)
[7] = Preemergence, Rate 500 g/ha, scale of 0 to 10 where 0 is no effect and 10 is complete control
[8] = Preemergence, Rate 250 g/ha, scale of 0 to 10 where 0 is no effect and 10 is complete control
[9] = Rate 250 g/ha, scale of 0 to 10 where 0 is no effect and 10 is complete control

CCOC(=O)C(C)N(C(=O)n1oc(=O)n(-c2c(C)cccc2OC)c1=O)c1ccc(F)cc1 (centres unmarked) [Compound 331]
0: Plant response rating, Wheat (wheat; [1]) | Wheat plant response rating (0 to 10 scale) (wheat; Preemergence, Rate 125 g/ha) | Wheat plant response rating (wheat; Preemergence, Rate 250 g/ha) | Wheat plant response rating (wheat; Preemergence, Rate 500 g/ha) | Plant response rating, Wheat (wheat; [2]) | Plant response rating, Morningglory (morningglory; [1]) | Morningglory plant response rating (0 to 10 scale) (morningglory; Preemergence, Rate 125 g/ha) | Morningglory plant response rating (morningglory; Preemergence, Rate 250 g/ha) | Morningglory plant response rating (morningglory; Preemergence, Rate 500 g/ha) | Plant response rating, Morningglory (morningglory; [2]) | Plant response rating, Rape (rape; [1]) | Rape plant response rating (0 to 10 scale) (rape; Preemergence, Rate 125 g/ha) | Rape plant response rating (rape; Preemergence, Rate 250 g/ha) | Rape plant response rating (rape; Preemergence, Rate 500 g/ha) | Plant response rating, Rape (rape; [2]) | Rice plant response rating (rice; [3]) | Rice plant response rating (rice; [4]) | Rice plant response rating (rice; [5]) | Rice plant response rating (rice; [6]) | Plant response rating, Redroot pigweed (pigweed; [1]) | Redroot pigweed plant response rating (0 to 10 scale) (pigweed; Preemergence, Rate 125 g/ha) | Redroot pigweed plant response rating (pigweed; Preemergence, Rate 250 g/ha) | Redroot pigweed plant response rating (pigweed; Preemergence, Rate 500 g/ha) | Plant response rating, Redroot pigweed (pigweed; [2]) | Plant response rating, Crabgrass (crabgrass; [1]) | Crabgrass plant response rating (0 to 10 scale) (crabgrass; Preemergence, Rate 125 g/ha) | Crabgrass plant response rating (crabgrass; Preemergence, Rate 250 g/ha) | Crabgrass plant response rating (crabgrass; Preemergence, Rate 500 g/ha) | Plant response rating, Crabgrass (crabgrass; [2]) | Plant response rating, Wild oats (wild oat; [1]) | Wild oats plant response rating (0 to 10 scale) (wild oat; Preemergence, Rate 125 g/ha) | Wild oats plant response rating (wild oat; Preemergence, Rate 250 g/ha) | Wild oats plant response rating (wild oat; Preemergence, Rate 500 g/ha) | Plant response rating, Wild oats (wild oat; [2]) | Barnyardgrass plant response rating (bamyardgrass; [3]) | Barnyardgrass plant response rating (bamyardgrass; [4]) | Barnyardgrass plant response rating (bamyardgrass; [5]) | Barnyardgrass plant response rating (bamyardgrass; [6]) | Plant response rating, Bedstraw (bedstraw; [1]) | Bedstraw plant response rating (bedstraw; [7]) | Plant response rating, Bedstraw (bedstraw; [2]) | Ducksalad plant response rating (duck salad; [3]) | Ducksalad plant response rating (duck salad; [4]) | Ducksalad plant response rating (duck salad; [5]) | Ducksalad plant response rating (duck salad; [6]) | Plant response rating, Giant foxtail (giant foxtail; [1]) | Giant foxtail plant response rating (giant foxtail; Rate 250 g/ha) | Giant foxtail plant response rating (giant foxtail; Rate 500 g/ha) | Plant response rating, Giant foxtail (giant foxtail; [2]) | Plant response rating, Blackgrass (blackgrass; [1]) | Blackgrass plant response rating (0 to 10 scale) (blackgrass; Preemergence, Rate 125 g/ha) | Blackgrass plant response rating (blackgrass; [8]) | Blackgrass plant response rating (blackgrass; [7]) | Plant response rating, Blackgrass (blackgrass; [9]) | Plant response rating, Blackgrass (blackgrass; [2]) | Plant response rating, Nutsedge (purple nutsedge; [1]) | Nutsedge plant response rating (0 to 10 scale) (purple nutsedge; Preemergence, Rate 125 g/ha) | Nutsedge plant response rating (purple nutsedge; Preemergence, Rate 250 g/ha) | Nutsedge plant response rating (purple nutsedge; Preemergence, Rate 500 g/ha) | Plant response rating, Nutsedge (purple nutsedge; [2]) | Plant response rating, Velvetleaf (velvetleaf; [1]) | Velvetleaf plant response rating (0 to 10 scale) (velvetleaf; Preemergence, Rate 125 g/ha) | Velvetleaf plant response rating (velvetleaf; Preemergence, Rate 250 g/ha) | Velvetleaf plant response rating (velvetleaf; Preemergence, Rate 500 g/ha) | Plant response rating, Velvetleaf (velvetleaf; [2]) | S. Flatsedge plant response rating (smallflower flatsedge; [3]) | S. Flatsedge plant response rating (smallflower flatsedge; [4]) | S. Flatsedge plant response rating (smallflower flatsedge; [5]) | S. Flatsedge plant response rating (smallflower flatsedge; [6]) | Plant response rating, Cocklebur (cocklebur; [1]) | Cocklebur plant response rating (0 to 10 scale) (cocklebur; Preemergence, Rate 125 g/ha) | Cocklebur plant response rating (cocklebur; Preemergence, Rate 250 g/ha) | Cocklebur plant response rating (cocklebur; Preemergence, Rate 500 g/ha) | Plant response rating, Cocklebur (cocklebur; [2]) | Plant response rating, B. signalgrass (surinam grass; [1]) | B. signalgrass plant response rating (0 to 10 scale, 0 is no effect, 10 is complete control) (surinam grass; Preemergence, Rate 125 g/ha) | B. signalgrass plant response rating (surinam grass; [8]) | B. signalgrass plant response rating (surinam grass; [7]) | Plant response rating, B. signalgrass (surinam grass; [9]) | Plant response rating, B. signalgrass (surinam grass; [2]) | Plant response rating, Sugarbeets (sugar beet; [1]) | Sugarbeets plant response rating (0 to 10 scale) (sugar beet; Preemergence, Rate 125 g/ha) | Sugarbeets plant response rating (sugar beet; Preemergence, Rate 250 g/ha) | Sugarbeets plant response rating (sugar beet; Preemergence, Rate 500 g/ha) | Plant response rating, Sugarbeets (sugar beet; [2]) | Plant response rating, Soybean (soybean; [1]) | Soybean plant response rating (0 to 10 scale) (soybean; Preemergence, Rate 125 g/ha) | Soybean plant response rating (soybean; Preemergence, Rate 250 g/ha) | Soybean plant response rating (soybean; Preemergence, Rate 500 g/ha) | Plant response rating, Soybean (soybean; [2]) | Plant response rating, Corn (corn; [1]) | Corn plant response rating (0 to 10 scale) (corn; Preemergence, Rate 125 g/ha) | Corn plant response rating (corn; Preemergence, Rate 250 g/ha) | Corn plant response rating (corn; Preemergence, Rate 500 g/ha) | Plant response rating, Corn (corn; [2])
